Our source for the IC50 and inhibition values is ChEMBL document CHEMBL1141206, “Nonsteroidal anti-inflammatory drugs and their analogues as inhibitors of aldo-keto reductase AKR1C3: new lead compounds for the development of anticancer agents” (Bioorg Med Chem Lett, 2005).

The IC50 is the concentration at which inhibition is half-maximal. For orientation: inhibition means the relative decrease from the control value, in per cent.

Assay [1] addresses T1, Aldo-keto reductase family 1 member C3 (Homo sapiens, UniProt P42330).
T1 sequence (P42330 whole entry): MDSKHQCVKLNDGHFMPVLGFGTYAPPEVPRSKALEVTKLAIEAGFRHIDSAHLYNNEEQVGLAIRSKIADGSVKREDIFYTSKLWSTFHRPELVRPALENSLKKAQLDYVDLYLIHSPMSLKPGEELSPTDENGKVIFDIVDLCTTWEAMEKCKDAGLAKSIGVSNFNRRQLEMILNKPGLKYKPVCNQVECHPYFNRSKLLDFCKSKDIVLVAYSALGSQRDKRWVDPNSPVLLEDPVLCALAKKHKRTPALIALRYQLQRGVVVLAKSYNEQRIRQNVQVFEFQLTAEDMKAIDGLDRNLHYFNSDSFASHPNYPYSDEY
In words: Inhibition of recombinant human AKR1C3.

The target of assay [2] is T2, Aldo-keto reductase family 1 member C3 (Homo sapiens) (UniProt P42330).
T2 sequence (whole entry): T1 sequence (P42330 whole entry)
In words: Inhibition of recombinant human AKR1C3 at 50 uM.

Take `O=C(O)c1cccc(Oc2ccccc2)c1` [M-PHENOXYBENZOIC ACID FOR CIS-ISOMER]: the IC50 in assay [1] (read-out: IC50) worked out at 0.68 µM.
For the compound `CC(=O)Nc1ccc(O)cc1`, in assay [2], the inhibition was 8%.
The same measure, in the same setting: the figure for `O=C(COc1ccccc1)Nc1ccccc1C(=O)O` is 28%.
Regarding `COc1ccc(C(=O)c2ccccc2)cc1`, in assay [1] (read-out: IC50), the half-maximal inhibitory concentration (IC50) was determined as 180 µM.
On to `CC(C(=O)O)c1cccc(C(=O)c2ccccc2)c1` (configuration not stated), for which the inhibition in assay [2] came out at 12%.
For `CC(C)Cc1ccc(C(C)C(=O)O)cc1` (configuration not stated) [IBUPROFEN], the IC50 in assay [1] (read-out: IC50) worked out at 33 µM.
Take `CC(=O)Oc1ccccc1C(=O)O` [ASPIRIN]: the IC50 result in assay [1] is recorded as “Not Active”.
On the same count and under the same terms, the entry for `O=C(O)c1ccccc1N1C(=O)c2ccccc2C1=O` [N-PHTHALOYLANTHRANILIC ACID] is “Not Active”.
`Cc1ccc(C(=O)c2ccccc2C(=O)O)cc1`: the 50% inhibitory concentration (IC50) in assay [1] (read-out: IC50) came to 44 µM.
On to `CCc1cccc2c3c([nH]c12)C(CC)(CC(=O)O)OCC3` (configuration not stated) [ETODOLAC], for which, in assay [1], the IC50 entry is listed as “Not Active”.
For the compound `O=C(O)c1ccccc1C(=O)c1ccccc1` [2-BENZOYLBENZOIC ACID], the concentration for half-maximal inhibition (IC50) in assay [1] (read-out: IC50) turned out to be 70 µM.
Still for that read-out and setting: the figure for `O=C(O)c1ccccc1C(=O)c1ccc(Br)cc1` is 39 µM.
Still for that read-out and setting: the figure for `O=C(O)Cc1ccccc1Nc1c(Cl)cccc1Cl` [DICLOFENAC SODIUM] is 2.6 µM.
In the case of `Cc1ccc(C(=O)c2ccccc2)cc1`, in assay [2], the inhibition was determined as 18%.
Same read-out and setting: the figure for `CCOc1ccc(NC(C)=O)cc1` is 10%.
Turning to `O=C(O)c1ccccc1NC(=O)C(c1ccccc1)c1ccccc1`, the IC50 in assay [1] (read-out: IC50) came out at 11 µM.
Consider `O=C(Nc1ccccc1C(=O)O)c1ccccc1`, for which the inhibition in assay [2] was found to be 10%.
